For 21 molecules, IC50 results are on record in patent US9938258B2 (Karyopharm Therapeutics Inc., priority 2012, dated 2018).

Read-outs that look alike come from different tables or passages of the source.

One assay deals with Z138 cells. The assay is described as follows: MTT cell proliferation assay, Z138. In kind it is cell-based. Summed up: (§1)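 Cells plated at 5,000-10,000/well and attached overnight, then treated with eight compound concentrations from 1 nM to 30 μM. MTT added ~4 h, formazan solubilised and read at 490 nm. Percent inhibition versus negative control = (1-(ODo/OD))×100, mostly in duplicate, mean ± SE.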
(In general: Formazan colour is commonly taken as a measure of viable cells.)

The next assay relates to MS751 cells. In words: MTT cell proliferation assay, MS751. The assay is classed as cell-based, human. In a few lines:
as §1

Another assay concerns 3T3 cells. The assay is described as follows: MTT cell proliferation assay, 3T3. In kind it is cell-based, mouse. In a few lines: as §1
Setting [1] is: Homo sapiens, Z-138, Z138 cells, eight concentrations 1 nM to 30 μM, incubation approximately 64-72 hours, read-out: MTT Assay IC50, Z138.
Where [2] appears, read: Homo sapiens, MS751, MS751 cells, eight concentrations 1 nM to 30 μM, incubation approximately 64-72 hours, read-out: MTT Assay IC50, MS751.
Where [3] appears, read: Mus musculus, NIH3T3, 3T3 cells, eight concentrations 1 nM to 30 μM, incubation approximately 64-72 hours, read-out: MTT Assay IC50, 3T3.
Setting [4] is: Homo sapiens, Z-138, Z138 cells, approximately 64-72 hours incubation, read-out: MTT Assay IC50, Z138.
[5] abbreviates: Homo sapiens, MS751, MS751 cells, approximately 64-72 hours incubation, read-out: MTT Assay IC50, MS751.
The mark [6] stands for this setting: Mus musculus, NIH3T3, 3T3 cells, approximately 64-72 hours incubation, read-out: MTT Assay IC50, 3T3.

For the molecule `CC(=O)c1ccc(-c2cc(Cl)c3c(c2)CC(CNC(=O)/C=C/c2ccncc2)O3)s1` (stereo not drawn) [Compound 24, (E)-N-((5-(5-acetylthiophen-2-yl)-7-chloro-2,3-dihydrobenzofuran-2-yl)methyl)-3-(pyridin-4-yl)acrylamide], the IC50 in the assay with Z138 cells (setting [1]), in the assay on MS751 cells (setting [2]) and with 3T3 cells (setting [3]) was more than 30 µM throughout.

Regarding `Nc1ccc(/C=C/C(=O)NCC2Cc3c(-c4ccc(C(=O)N5CC(F)(F)C5)cc4)ccc(Cl)c3O2)cn1` (stereo not drawn) [Compound 340, (E)-3-(6-aminopyridin-3-yl)-N-((7-chloro-4-(4-(3,3-difluoroazetidine-1-carbonyl)phenyl)-2,3-dihydrobenzofuran-2-yl)methyl)acrylamide], the IC50 (usually the point on the concentration scale where inhibition reaches its midpoint) was 0.1 to 5 µM in the assay with Z138 cells (setting [4]), less than 0.1 µM with MS751 cells (setting [5]) and less than 0.1 µM in the assay with 3T3 cells (setting [6]).

Turning to `CC(=O)c1ccc(-c2cc(Cl)c3c(c2)CC(CNC(=O)/C=C/c2cc(C)[nH]c2C)O3)s1` (stereo not drawn) [Compound 185, (E)-N-((5-(5-acetylthiophen-2-yl)-7-chloro-2,3-dihydrobenzofuran-2-yl)methyl)-3-(2,5-dimethyl-1H-pyrrol-3-yl)acrylamide], the IC50 with Z138 cells (setting [1]), in the assay on MS751 cells (setting [2]) and with 3T3 cells (setting [3]) was more than 30 µM in each case.

For `Nc1ccc(/C=C/C(=O)NCC2Cc3cc(-c4ccc(C(=O)NNc5cnccn5)cc4)cc(Cl)c3O2)cn1` (stereo not drawn) [Compound 904, (E)-3-(6-aminopyridin-3-yl)-N-((7-chloro-5-(4-(2-(pyrazin-2-yl) hydrazine-1-carbonyl)phenyl)-2,3-dihydrobenzofuran-2-yl)methyl)acrylamide], the results for the IC50 in the assay on Z138 cells (setting [4]), in the assay with MS751 cells (setting [5]) and with 3T3 cells (setting [6]) were less than 0.1 µM, less than 0.1 µM and 0.1 to 5 µM, respectively.

On to `COc1ccc(/C=C/C(=O)NCC2Cc3cc(-c4ccc(C(C)=O)s4)cc(Cl)c3O2)cn1` (stereo not drawn) [Compound 296, (E)-N-((5-(5-acetylthiophen-2-yl)-7-chloro-2,3-dihydrobenzofuran-2-yl)methyl)-3-(6-methoxypyridin-3-yl)acrylamide], for which the values for the IC50 in the assay on Z138 cells (setting [4]), with MS751 cells (setting [5]) and with 3T3 cells (setting [6]) were 5 to 30 µM, 5 to 30 µM and more than 30 µM, respectively.

With `CC(=O)c1ccc(-c2cc(Cl)c3c(c2)CC(CNC(=O)/C=C/c2cccnn2)O3)s1` (single isomer, unassigned) [Compound 318, (E)-N-((5-(5-acetylthiophen-2-yl)-7-chloro-2,3-dihydrobenzofuran-2-yl)methyl)-3-(pyridazin-3-yl)acrylamide], the IC50 was 0.1 to 5 µM with Z138 cells (Z138 cells, approximately 64-72 hours incubation, read-out: MTT Assay IC50, Z138); 0.1 to 5 µM in the assay on MS751 cells (MS751 cells, approximately 64-72 hours incubation, read-out: MTT Assay IC50, MS751); more than 30 µM in the assay with 3T3 cells (3T3 cells, approximately 64-72 hours incubation, read-out: MTT Assay IC50, 3T3).

Consider `CC(=O)c1ccc(-c2cc(Cl)c3c(c2)CC(CNC(=O)/C=C/c2ccc(N(C)C)nc2)O3)s1` (stereo not drawn) [Compound 295, (E)-N-((5-(5-acetylthiophen-2-yl)-7-chloro-2,3-dihydrobenzofuran-2-yl)methyl)-3-(6-(dimethylamino)pyridin-3-yl)acrylamide], for which the IC50 with Z138 cells (setting [4]), in the assay with MS751 cells (setting [5]) and in the assay with 3T3 cells (setting [6]) was more than 30 µM in each case.

For the molecule `CC(=O)c1ccc(-c2cc(Cl)c3c(c2)CC(CNC(=O)/C=C/c2c(C)nn4c(C(F)(F)F)ccnc24)O3)s1` (stereo not drawn) [Compound 287, (E)-N-((5-(5-acetylthiophen-2-yl)-7-chloro-2,3-dihydrobenzofuran-2-yl)methyl)-3-(2-methyl-7-(trifluoromethyl)pyrazolo[1,5-a]pyrimidin-3-yl) acryl amide], the IC50 with Z138 cells (setting [4]), in the assay on MS751 cells (setting [5]) and with 3T3 cells (setting [6]) was more than 30 µM each time.

For the molecule `CC(=O)c1ccc(-c2cc(Cl)c3c(c2)CC(CNC(=O)/C=C/c2c(Cl)nc4sccn24)O3)s1` (stereo not drawn) [Compound 276, (E)-N-((5-(5-acetylthiophen-2-yl)-7-chloro-2,3-dihydrobenzofuran-2-yl)methyl)-3-(6-chloroimidazo[2,1-b]thiazol-5-yl)acrylamide], the IC50 with Z138 cells (setting [1]), with MS751 cells (setting [2]) and with 3T3 cells (setting [3]) was more than 30 µM throughout.

With `Nc1ccc(/C=C/C(=O)NCC2Cc3c(-c4cc(F)c(C(=O)N5CCOCC5)c(F)c4)ccc(Cl)c3O2)cn1` (stereo not drawn) [Compound 908, (E)-3-(6-Aminopyridin-3-yl)-N-((7-chloro-4-(3,5-difluoro-4-(morpholine-4-carbonyl)phenyl)-2,3-dihydrobenzofuran-2-yl)methyl)acrylamide], the IC50 in the assay with Z138 cells (setting [4]) was less than 0.1 µM; in the assay on MS751 cells (setting [5]), less than 0.1 µM; in the assay on 3T3 cells (setting [6]) it was 0.1 to 5 µM.

Consider `Nc1ccc(/C=C/C(=O)NCC2Cc3cc(-c4ccc(C(=O)N5CCOCC5)c(F)c4)cc(Cl)c3O2)cn1` (stereo not drawn) [Compound 903, (E)-3-(6-aminopyridin-3-yl)-N-((7-chloro-5-(3-fluoro-4-(morpholine-4-carbonyl)phenyl)-2,3-dihydrobenzofuran-2-yl)methyl)acrylamide], for which the IC50 in the assay with Z138 cells (setting [4]) was less than 0.1 µM; with MS751 cells (setting [5]), less than 0.1 µM; with 3T3 cells (setting [6]), 0.1 to 5 µM.

For the molecule `CC(=O)c1ccc(-c2cc(Cl)c3c(c2)CC(CNC(=O)/C=C/c2sc4ccccc4c2Cl)O3)s1` (stereo not drawn) [Compound 291, (E)-N-((5-(5-acetylthiophen-2-yl)-7-chloro-2,3-dihydrobenzofuran-2-yl)methyl)-3-(3-chlorobenzo[b]thiophen-2-yl)acrylamide], the concentration for half-maximal inhibition (IC50) in the assay with Z138 cells (setting [4]), in the assay with MS751 cells (setting [5]) and with 3T3 cells (setting [6]) was more than 30 µM in each case.

On to `CC(=O)c1ccc(-c2cc(Cl)c3c(c2)CC(CNC(=O)/C(C#N)=C/c2ccoc2)O3)s1` (stereo not drawn) [Compound 286, (E)-N-((5-(5-acetylthiophen-2-yl)-7-chloro-2,3-dihydrobenzofuran-2-yl)methyl)-2-cyano-3-(furan-3-yl) acrylamide], for which the IC50 in the assay with Z138 cells (Homo sapiens, Z-138, read-out: MTT Assay IC50, Z138) is 5 to 30 µM; in the assay with MS751 cells (Homo sapiens, MS751, read-out: MTT Assay IC50, MS751) it was 5 to 30 µM; with 3T3 cells (Mus musculus, NIH3T3, read-out: MTT Assay IC50, 3T3), more than 30 µM.

Consider `CC(=O)c1ccc(-c2ccc(Cl)c3c2CC(CNC(=O)/C=C/c2cccnc2)O3)s1` (stereo not drawn) [Compound 173, (E)-N-((4-(5-acetylthiophen-2-yl)-7-chloro-2,3-dihydrobenzofuran-2-yl)methyl)-3-(pyridin-3-yl)acrylamide], for which the IC50 in the assay on Z138 cells (setting [1]), with MS751 cells (setting [2]) and in the assay on 3T3 cells (setting [3]) was 0.1 to 5 µM each time.

Consider `Nc1ccc(/C=C/C(=O)NCC2Cc3c(-c4ccc(C(=O)N5CCOCC5)cc4)ccc(Cl)c3O2)cn1` (stereo not drawn) [Compound 249, (E)-3-(6-aminopyridin-3-yl)-N-((7-chloro-4-(4-(morpholine-4-carbonyl)phenyl)-2,3-dihydrobenzofuran-2-yl)methyl)acrylamide], for which the IC50 in the assay on Z138 cells (setting [4]) was less than 0.1 µM; in the assay with MS751 cells (setting [5]) it was less than 0.1 µM; in the assay with 3T3 cells (setting [6]) it was 0.1 to 5 µM.

As to `O=C(/C=C/c1cccnc1)NCC1Cc2cc(-c3cc(Cl)cc(Cl)c3)cc(Cl)c2O1` (stereo not drawn) [Compound 32, (E)-N-((7-chloro-5-(3,5-dichlorophenyl)-2,3-dihydrobenzofuran-2-yl)methyl)-3-(pyridin-3-yl)acrylamide], the results for the IC50 with Z138 cells (setting [1]), in the assay on MS751 cells (setting [2]) and in the assay with 3T3 cells (setting [3]) were 0.1 to 5 µM, 0.1 to 5 µM and more than 30 µM, respectively.

For `Nc1ccc(CNC(=O)/C=C/C2Cc3cc(-c4ccc(S(=O)(=O)N5CCOCC5)cc4)cc(Cl)c3O2)cn1` (stereo not drawn) [Compound 350, (E)-N-((6-aminopyridin-3-yl)methyl)-3-(7-chloro-5-(4-(morpholinosulfonyl)phenyl)-2,3-dihydrobenzofuran-2-yl)acrylamide], the IC50 in the assay with Z138 cells (setting [4]) was more than 30 µM; in the assay on MS751 cells (setting [5]), 0.1 to 5 µM; in the assay with 3T3 cells (setting [6]) it was 0.1 to 5 µM.

Take `CC(=O)c1ccc(-c2cc(Cl)c3c(c2)CC(CNC(=O)/C=C/c2c(C)nn(-c4ccc(F)cc4)c2C)O3)s1` (stereo not drawn) [Compound 208, (E)-N-((5-(5-acetylthiophen-2-yl)-7-chloro-2,3-dihydrobenzofuran-2-yl)methyl)-3-(1-(4-fluorophenyl)-3,5-dimethyl-1H-pyrazol-4-yl)acrylamide]: the IC50 in the assay on Z138 cells (setting [4]) was 5 to 30 µM; with MS751 cells (setting [5]), 5 to 30 µM; with 3T3 cells (setting [6]), more than 30 µM.

As to `CC(=O)c1ccc(-c2cc(Cl)c3c(c2)CC(CNC(=O)/C=C/c2sccc2C)O3)s1` (stereo not drawn) [Compound 152, (E)-N-((5-(5-acetylthiophen-2-yl)-7-chloro-2,3-dihydrobenzofuran-2-yl)methyl)-3-(3-methylthiophen-2-yl)acrylamide], the IC50 with Z138 cells (setting [1]), in the assay on MS751 cells (setting [2]) and with 3T3 cells (setting [3]) was more than 30 µM each time.

Take `Nc1ccc(/C=C/C(=O)NCC2Cc3c(-c4ccc(C(=O)N5CCOCC5)cc4F)ccc(Cl)c3O2)cn1` (stereo not drawn) [Compound 911, (E)-3-(6-aminopyridin-3-yl)-N-((7-chloro-4-(2-fluoro-4-(morpholine-4-carbonyl)phenyl)-2,3-dihydrobenzofuran-2-yl)methyl)acrylamide]: the IC50 was less than 0.1 µM with Z138 cells (setting [4]), less than 0.1 µM in the assay with MS751 cells (setting [5]) and 0.1 to 5 µM with 3T3 cells (setting [6]).

With `CC(O)c1ccc(-c2cc(Cl)c3c(c2)CC(CNC(=O)/C=C/c2ccc(N)nc2)O3)s1` (stereo not drawn) [Compound 306, (E)-3-(6-aminopyridin-3-yl)-N-((7-chloro-5-(5-(1-hydroxyethyl)thiophen-2-yl)-2,3-dihydrobenzofuran-2-yl)methyl)acrylamide], the IC50 was 0.1 to 5 µM in the assay with Z138 cells (setting [4]), 0.1 to 5 µM in the assay with MS751 cells (setting [5]) and more than 30 µM with 3T3 cells (setting [6]).
